{
  "source": "PubChem BioAssay AID1963984",
  "about": "(Molecular Pharmacology Branch, DTP, NCI, 2024);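 also: spheroids exposed to agents for seven days before readout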;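 as to viability, T/C: percent viability relative to DMSO vehicle control taken as 100%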",
  "system": "233499-124-R-J3-PDC spheroids with HUVEC/MSC, viability",
  "assay": "Anticancer human tumor 233499-124-R-J3-PDC patient-derived colon adenocarcinoma cell line growth inhibition [PI3K]",
  "conditions": "for IC50: curve of first compound; for viability, T/C: stronger effect = lower value",
  "in_short": "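Tumor cells were combined with HUVEC and MSCs into spheroids, then dosed with PI3K-inhibitor combinations over half-log ranges capped near clinical Cmax or 10 microM.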",
  "key": {"[1]": {"conditions": "second compound 0.00316 µM, first compound 0.0316 µM"}, "[2]": {"conditions": "second compound 0.00316 µM, first compound 0.1 µM"}, "[3]": {"conditions": "second compound 0.00316 µM, first compound 0.316 µM"}, "[4]": {"conditions": "second compound 0.00316 µM, first compound 1 µM"}, "[5]": {"conditions": "second compound 0.01 µM, first compound 0.0316 µM"}, "[6]": {"conditions": "second compound 0.01 µM, first compound 0.1 µM"}, "[7]": {"conditions": "second compound 0.01 µM, first compound 0.316 µM"}, "[8]": {"conditions": "second compound 0.01 µM, first compound 1 µM"}, "[9]": {"conditions": "second compound 0.0316 µM, first compound 0.0316 µM"}, "[10]": {"conditions": "second compound 0.0316 µM, first compound 0.1 µM"}, "[11]": {"conditions": "second compound 0.0316 µM, first compound 0.316 µM"}, "[12]": {"conditions": "second compound 0.0316 µM, first compound 1 µM"}, "[13]": {"conditions": "second compound 0.1 µM, first compound 0.0316 µM"}, "[14]": {"conditions": "second compound 0.1 µM, first compound 0.1 µM"}, "[15]": {"conditions": "second compound 0.1 µM, first compound 0.316 µM"}, "[16]": {"conditions": "second compound 0.1 µM, first compound 1 µM"}, "[17]": {"conditions": "second compound 0.316 µM, first compound 0.0316 µM"}, "[18]": {"conditions": "second compound 0.316 µM, first compound 0.1 µM"}, "[19]": {"conditions": "second compound 0.316 µM, first compound 0.316 µM"}, "[20]": {"conditions": "second compound 0.316 µM, first compound 1 µM"}, "[21]": {"conditions": "second compound 1 µM, first compound 0.0316 µM"}, "[22]": {"conditions": "second compound 1 µM, first compound 0.1 µM"}, "[23]": {"conditions": "second compound 1 µM, first compound 0.316 µM"}, "[24]": {"conditions": "second compound 1 µM, first compound 1 µM"}},
  "data": [
    {"smiles": "CC(C)NCC(C(=O)N1CCN(c2ncnc3c2C(C)CC3O)CC1)c1ccc(Cl)cc1", "note": "(centres undefined) + COc1c(OCCCN2CCOCC2)ccc2c3n(c(=NC(=O)c4cnc(N)nc4)nc12)CCN3", "values": [
      {"measurement": "IC50", "setting": "second compound 0.00316 µM", "result": "> 10000", "unit": "nM"},
      {"measurement": "IC50", "setting": "second compound 0.01 µM", "result": "> 10000", "unit": "nM"},
      {"measurement": "IC50", "setting": "second compound 0.0316 µM", "result": "> 10000", "unit": "nM"},
      {"measurement": "IC50", "setting": "second compound 0.1 µM", "result": "> 10000", "unit": "nM"},
      {"measurement": "IC50", "setting": "second compound 0.316 µM", "result": "< 31.6", "unit": "nM"},
      {"measurement": "IC50", "setting": "second compound 1 µM", "result": "< 31.6", "unit": "nM"},
      {"measurement": "viability, T/C", "setting": "[1]", "result": 92.1, "unit": "%"},
      {"measurement": "viability, T/C", "setting": "[2]", "result": 88.9, "unit": "%"},
      {"measurement": "viability, T/C", "setting": "[3]", "result": 74, "unit": "%"},
      {"measurement": "viability, T/C", "setting": "[4]", "result": 81.8, "unit": "%"},
      {"measurement": "viability, T/C", "setting": "second compound 0.00316 µM, first compound 3.16 µM", "result": 98.8, "unit": "%"},
      {"measurement": "viability, T/C", "setting": "second compound 0.00316 µM, first compound 10 µM", "result": 81.5, "unit": "%"},
      {"measurement": "viability, T/C", "setting": "[5]", "result": 103, "unit": "%"},
      {"measurement": "viability, T/C", "setting": "[6]", "result": 96.6, "unit": "%"},
      {"measurement": "viability, T/C", "setting": "[7]", "result": 82.7, "unit": "%"},
      {"measurement": "viability, T/C", "setting": "[8]", "result": 97.1, "unit": "%"},
      {"measurement": "viability, T/C", "setting": "second compound 0.01 µM, first compound 3.16 µM", "result": 90, "unit": "%"},
      {"measurement": "viability, T/C", "setting": "second compound 0.01 µM, first compound 10 µM", "result": 80.2, "unit": "%"},
      {"measurement": "viability, T/C", "setting": "[9]", "result": 81, "unit": "%"},
      {"measurement": "viability, T/C", "setting": "[10]", "result": 98.1, "unit": "%"},
      {"measurement": "viability, T/C", "setting": "[11]", "result": 76.6, "unit": "%"},
      {"measurement": "viability, T/C", "setting": "[12]", "result": 84.4, "unit": "%"},
      {"measurement": "viability, T/C", "setting": "second compound 0.0316 µM, first compound 3.16 µM", "result": 84.3, "unit": "%"},
      {"measurement": "viability, T/C", "setting": "second compound 0.0316 µM, first compound 10 µM", "result": 84.1, "unit": "%"},
      {"measurement": "viability, T/C", "setting": "[13]", "result": 68.4, "unit": "%"},
      {"measurement": "viability, T/C", "setting": "[14]", "result": 76.4, "unit": "%"},
      {"measurement": "viability, T/C", "setting": "[15]", "result": 61.4, "unit": "%"},
      {"measurement": "viability, T/C", "setting": "[16]", "result": 52.2, "unit": "%"},
      {"measurement": "viability, T/C", "setting": "second compound 0.1 µM, first compound 3.16 µM", "result": 49.7, "unit": "%"},
      {"measurement": "viability, T/C", "setting": "second compound 0.1 µM, first compound 10 µM", "result": 65.8, "unit": "%"},
      {"measurement": "viability, T/C", "setting": "[17]", "result": 32.2, "unit": "%"},
      {"measurement": "viability, T/C", "setting": "[18]", "result": 32, "unit": "%"},
      {"measurement": "viability, T/C", "setting": "[19]", "result": 31.9, "unit": "%"},
      {"measurement": "viability, T/C", "setting": "[20]", "result": 17.1, "unit": "%"},
      {"measurement": "viability, T/C", "setting": "second compound 0.316 µM, first compound 3.16 µM", "result": 35.4, "unit": "%"},
      {"measurement": "viability, T/C", "setting": "second compound 0.316 µM, first compound 10 µM", "result": 20.6, "unit": "%"},
      {"measurement": "viability, T/C", "setting": "[21]", "result": 5.67, "unit": "%"},
      {"measurement": "viability, T/C", "setting": "[22]", "result": 11.1, "unit": "%"},
      {"measurement": "viability, T/C", "setting": "[23]", "result": 6.6, "unit": "%"},
      {"measurement": "viability, T/C", "setting": "[24]", "result": 11.4, "unit": "%"},
      {"measurement": "viability, T/C", "setting": "second compound 1 µM, first compound 3.16 µM", "result": 16.2, "unit": "%"},
      {"measurement": "viability, T/C", "setting": "second compound 1 µM, first compound 10 µM", "result": 10.2, "unit": "%"}
    ]},
    {"smiles": "CCN1CCN(Cc2ccc(Nc3ncc(F)c(-c4cc(F)c5nc(C)n(C(C)C)c5c4)n3)nc2)CC1", "note": "+ COc1c(OCCCN2CCOCC2)ccc2c3n(c(=NC(=O)c4cnc(N)nc4)nc12)CCN3", "values": [
      {"measurement": "IC50", "setting": "second compound 0.00316 µM", "result": "> 1000", "unit": "nM"},
      {"measurement": "IC50", "setting": "second compound 0.01 µM", "result": 816, "unit": "nM"},
      {"measurement": "IC50", "setting": "second compound 0.0316 µM", "result": 330, "unit": "nM"},
      {"measurement": "IC50", "setting": "second compound 0.1 µM", "result": 9.08, "unit": "nM"},
      {"measurement": "IC50", "setting": "second compound 0.316 µM", "result": "< 3.16", "unit": "nM"},
      {"measurement": "IC50", "setting": "second compound 1 µM", "result": "< 3.16", "unit": "nM"},
      {"measurement": "viability, T/C", "setting": "second compound 0.00316 µM, first compound 0.00316 µM", "result": 81.7, "unit": "%"},
      {"measurement": "viability, T/C", "setting": "second compound 0.00316 µM, first compound 0.01 µM", "result": 92, "unit": "%"},
      {"measurement": "viability, T/C", "setting": "[1]", "result": 79.2, "unit": "%"},
      {"measurement": "viability, T/C", "setting": "[2]", "result": 60.8, "unit": "%"},
      {"measurement": "viability, T/C", "setting": "[3]", "result": 77.3, "unit": "%"},
      {"measurement": "viability, T/C", "setting": "[4]", "result": 48.6, "unit": "%"},
      {"measurement": "viability, T/C", "setting": "second compound 0.01 µM, first compound 0.00316 µM", "result": 84.3, "unit": "%"},
      {"measurement": "viability, T/C", "setting": "second compound 0.01 µM, first compound 0.01 µM", "result": 105, "unit": "%"},
      {"measurement": "viability, T/C", "setting": "[5]", "result": 97, "unit": "%"},
      {"measurement": "viability, T/C", "setting": "[6]", "result": 83.6, "unit": "%"},
      {"measurement": "viability, T/C", "setting": "[7]", "result": 71.2, "unit": "%"},
      {"measurement": "viability, T/C", "setting": "[8]", "result": 45.5, "unit": "%"},
      {"measurement": "viability, T/C", "setting": "second compound 0.0316 µM, first compound 0.00316 µM", "result": 89.2, "unit": "%"},
      {"measurement": "viability, T/C", "setting": "second compound 0.0316 µM, first compound 0.01 µM", "result": 85.6, "unit": "%"},
      {"measurement": "viability, T/C", "setting": "[9]", "result": 80.9, "unit": "%"},
      {"measurement": "viability, T/C", "setting": "[10]", "result": 57, "unit": "%"},
      {"measurement": "viability, T/C", "setting": "[11]", "result": 59.6, "unit": "%"},
      {"measurement": "viability, T/C", "setting": "[12]", "result": 23.7, "unit": "%"},
      {"measurement": "viability, T/C", "setting": "second compound 0.1 µM, first compound 0.00316 µM", "result": 81.3, "unit": "%"},
      {"measurement": "viability, T/C", "setting": "second compound 0.1 µM, first compound 0.01 µM", "result": 46, "unit": "%"},
      {"measurement": "viability, T/C", "setting": "[13]", "result": 49.2, "unit": "%"},
      {"measurement": "viability, T/C", "setting": "[14]", "result": 49.1, "unit": "%"},
      {"measurement": "viability, T/C", "setting": "[15]", "result": 44.4, "unit": "%"},
      {"measurement": "viability, T/C", "setting": "[16]", "result": 32, "unit": "%"},
      {"measurement": "viability, T/C", "setting": "second compound 0.316 µM, first compound 0.00316 µM", "result": 34.3, "unit": "%"},
      {"measurement": "viability, T/C", "setting": "second compound 0.316 µM, first compound 0.01 µM", "result": 16.4, "unit": "%"},
      {"measurement": "viability, T/C", "setting": "[17]", "result": 30.5, "unit": "%"},
      {"measurement": "viability, T/C", "setting": "[18]", "result": 20.7, "unit": "%"},
      {"measurement": "viability, T/C", "setting": "[19]", "result": 23.7, "unit": "%"},
      {"measurement": "viability, T/C", "setting": "[20]", "result": 22.9, "unit": "%"},
      {"measurement": "viability, T/C", "setting": "second compound 1 µM, first compound 0.00316 µM", "result": 8.08, "unit": "%"},
      {"measurement": "viability, T/C", "setting": "second compound 1 µM, first compound 0.01 µM", "result": 11.5, "unit": "%"},
      {"measurement": "viability, T/C", "setting": "[21]", "result": 10.4, "unit": "%"},
      {"measurement": "viability, T/C", "setting": "[22]", "result": 9.39, "unit": "%"},
      {"measurement": "viability, T/C", "setting": "[23]", "result": 7.45, "unit": "%"},
      {"measurement": "viability, T/C", "setting": "[24]", "result": 11.2, "unit": "%"}
    ]}
  ]
}
